From patent US8722681B2, “N-sulfonyl thiazolylpiperazine derivatives and related N-sulfonyl heterocyclic derivatives for the treatment of neuro degenerative diseases” (NV reMYND, priority 2007, dated 2014)

Key:
M17-SYNwt cells [1] = test: α-synuclein cytotoxicity assay (LDH leakage from paraquat-treated M17-SYNwt cells); format: cell-based, human; conditions: for EC50: Homo sapiens, M17-SYNwt cells, paraquat 32 mM, 40 hours, LDH activity; for % inh. (percentage inhibition) / % I (percentage inhibition): inhibition of synuclein toxicity at most effective concentration relative to untreated paraquat cells
From the text: An α-synuclein expression plasmid was constructed by sub-cloning the NcoI/XhoI fragment from 212T-SYN(WT) (Griffioen et al., Biochem Biophys Acta (2006) 1762(3):312-318) containing the cDNA of human wild type α-synuclein correspondingly into a standard mammalian expression vector pcDNA3.1 resulting in plasmid pcDNA3.1-SYNwt. Plasmid pcDNA3.1 and pcDNA3.1-SYNwt were transfected to human neuroblastoma cells (ATCC No. CRL-2267) and independent clonal lines with the plasmids stably integrated into the genome were selected. […] Over-expression of α-synuclein in M17-SYNwt cell lines was confirmed by Western analysis.
(§1) Due to the high levels of α-synuclein M17-SYNwt cells are exquisitely sensitivity to paraquat, a well-known risk factor of synuclein-dependent neuronal degeneration. In degenerated or dead cells lactate dehydrogenase (LDH) is leaked out of the cells into the extracellular environment due to a loss of plasma-membrane integrity. This principle was used to determine cytotoxicity by quantifying the level of leaked LDH into the growth medium.
(§2) The detailed method for determining α-synuclein cytotoxicity was as follows: From appropriate precultures of M17 and M17-SYN cells were seeded at 50000 cells/cm^2 in Optimem Reduced Serum without phenol red (InVitrogen, Cat. 31985-047) supplemented with 5% fetal calf serum, 1 mM sodium pyruvate, 1×non-essential amino acids, 500 μg/ml G418 0.5×antibiotic/antimycotic. After 3 hours of incubation at 37° C./5% CO2 paraquat was added to the cells (final concentration of 32 mM), together with the test compound and the cells were further incubated for 40 hours. Subsequently, LDH activity was determined using Promega Cytotox 96 Non-Radioactive cytotoxicity assay, (Cat. G1780) according the supplier's instructions.
This α-synuclein expressing neuroblastoma cells made it possible to assess the ability of novel compounds to counteract α-synuclein cytotoxicity. […] Since this method monitors leaked LDH from degenerated or dead cells only non-toxic compounds will be identified as active inhibitors of α-synuclein-mediated cytotoxicity. Lack of toxicity is an important characteristic for compounds to be used as a medicament to patients in need. A compound was considered to be active in this test when it inhibits α-synuclein cytotoxicity by more than 25% relative to untreated M17-SYNwt cells at a concentration of 20 μg/mL or lower. In the experiments, the control group consisted of M17-SYNwt cells treated with DMSO, the untreated paraquat group consisted of M17-SYNwt cells treated with paraquat and DMSO, and the treated paraquat group consisted of M17-SYNwt cells treated with paraquat and the test compound dissolved in DMSO.
Percent inhibition was calculated as the synuclein toxicity inhibition by the compound in treated paraquat cells, relative to the synuclein cytotoxicity in untreated paraquat cells.
The compounds from table 1 were screened for activity using the α-synuclein cytotoxicity assay as described above. Dose responses were carried out on all compounds found to be active (10 point curves in duplicate).

M17-SYNwt cells [2] = format: cell-based, human; conditions: M17-SYNwt cells treated with paraquat; not seen in M17 cells; FIG. 1
From the text: as §1, §2

Row | SMILES | EC50 (M17-SYNwt cells [1]; Table 2) [nM] | % inh. (percentage inhibition) (M17-SYNwt cells [1]; Table 2) [%] | EC50 (M17-SYNwt cells [1]; Table 1) [nM] | % I (percentage inhibition) (M17-SYNwt cells [1]; Table 1) [%] | level of LDH leaked into the medium (M17-SYNwt cells [2])
1 | COc1cccc(Cc2csc(N3CCN(S(=O)(=O)c4c(C)n[nH]c4C)CC3)n2)c1 [Compound 23, 1-(4-(3-methoxybenzyl)thiazol-2-yl)-4-(3,5-dimethyl-1H-pyrazol-4-ylsulfonyl)piperazine] | 1290 | 95 |  |  | 
2 | Cc1ccc(S(=O)(=O)N2CCN(c3nc(-c4cccs4)cs3)CC2)cc1 [Compound 78, 1-(4-(thiophen-2-yl)thiazol-2-yl)-4-tosylpiperazine] | 316 | 84 |  |  | 
3 | COc1cccc(Cc2csc(N3CCN(S(=O)(=O)c4ccsc4)CC3)n2)c1 [Compound 22, 1-(4-(3-methoxybenzyl)thiazol-2-yl)-4-(thiophen-3-ylsulfonyl)piperazine] | 1000 | 89 |  |  | 
4 | COc1cccc(Cc2csc(N3CCN(S(=O)(=O)c4cn(C)cn4)CC3)n2)c1 [Compound 26, 1-(4-(3-methoxybenzyl)thiazol-2-yl)-4-(1-methyl-1H-imidazol-4-ylsulfonyl)piperazine] | 870 | 87 |  |  | 
5 | O=S(=O)(c1ccc(Cl)cc1)N1CCN(c2nc(-c3ccc(F)cc3)cs2)CC1 [Compound 6] |  |  | 300 | 88 | 
6 | COc1ccccc1-c1csc(N2CCN(S(=O)(=O)c3cccc4c3ccn4C)CC2)n1 [Compound 77, 4-(4-(4-(2-methoxyphenyl)thiazol-2-yl)piperazin-1-ylsulfonyl)-1-methyl-1H-indole] | 257 | 69 |  |  | 
7 | COc1ccc(-c2csc(N3CCN(S(=O)(=O)c4cccs4)CC3)n2)cc1 [Compound 57, 1-(thiophen-2-ylsulfonyl)-4-(4-(4-methoxyphenyl)thiazol-2-yl)piperazine] | 721 | 88 |  |  | 
8 | COc1cccc(Cc2csc(N3CCN(S(=O)(=O)c4ccccc4OC)CC3)n2)c1 [Compound 16, 1-(4-(3-methoxybenzyl)thiazol-2-yl)-4-(2-methoxyphenylsulfonyl)piperazine] | 3590 | 76 |  |  | 
9 | COc1cccc(Cc2csc(N3CCN(S(=O)(=O)c4cccc5c4ccn5C)CC3)n2)c1 [Compound 24, 4-(4-(4-(3-methoxybenzyl)thiazol-2-yl)piperazin-1-ylsulfonyl)-1-methyl-1H-indole] | 1170 | 82 |  |  | 
10 | O=S(=O)(c1cccs1)N1CCN(c2nc(-c3ccc(Cl)cc3)cs2)CC1 [Compound 58, 1-(thiophen-2-ylsulfonyl)-4-(4-(4-chlorophenyl)thiazol-2-yl)piperazine] | 3750 | 99 |  |  | 
11 | COc1cccc(Cc2csc(N3CCN(S(=O)(=O)c4ccc5c(c4)OCO5)CC3)n2)c1 [Compound 19, 1-(4-(3-methoxybenzyl)thiazol-2-yl)-4-(benzo[d][1,3]dioxol-5-ylsulfonyl)piperazine] | 251 | 84 |  |  | 
12 | COc1ccc(S(=O)(=O)N2CCN(c3nc(Cc4ccc5c(c4)OCO5)cs3)CC2)cc1 [Compound 18, 1-(4-(benzo[d][1,3]dioxol-5-ylmethyl)thiazol-2-yl)-4-(4-methoxyphenylsulfonyl)piperazine] | 22.8 | 19 |  |  | 
13 | C[n+]1ccc(-c2cc[n+](C)cc2)cc1 [paraquat] |  |  |  |  | relatively high level
14 | COc1ccc(S(=O)(=O)N2CCN(c3nc(Cc4ccccc4OC)cs3)CC2)cc1 [Compound 15, 1-(4-(2-methoxybenzyl)thiazol-2-yl)-4-(4-methoxyphenylsulfonyl)piperazine] | 17 | 71 |  |  | 
15 | COc1ccc(S(=O)(=O)N2CCN(Cc3nc(Cc4cccc(OC)c4)cs3)CC2)cc1 [Compound 32, 1-((4-(3-methoxybenzyl)thiazol-2-yl)methyl)-4-(4-methoxyphenylsulfonyl)piperazine] | 159 | 95 |  |  | 
16 | CC(=O)NCCc1ccc(S(=O)(=O)N2CCN(c3nc(-c4ccccc4)cs3)CC2)cc1 [Compound 34, N-(4-(4-(4-phenylthiazol-2-yl)piperazin-1-ylsulfonyl)phenethyl)acetamide] | 3090 | 46 |  |  | 
17 | O=S(=O)(c1ccc2c(c1)OCCO2)N1CCN(c2nc(-c3ccccc3)cs2)CC1 [Compound 69, 1-(2,3-dihydrobenzo[b][1,4]dioxin-6-ylsulfonyl)-4-(4-phenylthiazol-2-yl)piperazine] | 434 | 89 |  |  | 
18 | COc1cccc(Cc2csc(N3CCN(S(=O)(=O)c4ccc(NC(C)=O)cc4)CC3)n2)c1 [Compound 27, N-(4-(4-(4-(3-methoxybenzyl)thiazol-2-yl)piperazin-1-ylsulfonyl)phenyl)acetamide] | 250 | 91 |  |  | 
19 | O=S(=O)(c1cccc2nonc12)N1CCN(c2nc(-c3ccc(F)cc3)cs2)CC1 [Compound 74, 4-(4-(4-(4-fluorophenyl)thiazol-2-yl)piperazin-1-ylsulfonyl)benzo[c][1,2,5]oxadiazole] | 233 | 41 |  |  | 
20 | Cc1ccc(S(=O)(=O)N2CCN(c3nc(-c4ccc(F)cc4)cs3)CC2)cc1 [Compound 2] |  |  | 160 | 70 | 
21 | COc1cccc(Cc2csc(N3CCN(S(=O)(=O)c4ccc(F)cc4)CC3)n2)c1 [Compound 30, 1-(4-(3-methoxybenzyl)thiazol-2-yl)-4-(4-fluorophenylsulfonyl)piperazine] | 405 | 98 |  |  | 
22 | O=[N+]([O-])c1ccc(-c2csc(N3CCN(S(=O)(=O)c4ccc5c(c4)OCCO5)CC3)n2)cc1 [Compound 71, 1-(2,3-dihydrobenzo[b][1,4]dioxin-6-ylsulfonyl)-4-(4-(4-nitrophenyl)thiazol-2-yl)piperazine] | 1440 | 77 |  |  | 
23 | COc1ccc(S(=O)(=O)N2CCN(c3nc(-c4ccncc4)cs3)CC2)cc1 [Compound 49, 1-(4-methoxyphenylsulfonyl)-4-(4-(pyridin-4-yl)thiazol-2-yl)piperazine] | 75 | 114 |  |  | 
24 | COc1ccc(OC)c(S(=O)(=O)N2CCN(c3nc(-c4ccccc4)cs3)CC2)c1 [Compound 36, 1-(2,5-dimethoxyphenylsulfonyl)-4-(4-phenylthiazol-2-yl)piperazine] | 950 | 121 |  |  | 
25 | COc1ccc(-c2csc(N3CCN(S(=O)(=O)N4CCCC4)CC3)n2)cc1 [Compound 63, 1-(4-(4-methoxyphenyl)thiazol-2-yl)-4-(pyrrolidin-1-ylsulfonyl)piperazine] | 3180 | 69 |  |  | 
26 | COc1ccc(S(=O)(=O)N2CCN(c3nc(Cc4cccc(F)c4)cs3)CC2)cc1 [Compound 13, 1-(4-(3-fluorobenzyl)thiazol-2-yl)-4-(4-methoxyphenylsulfonyl)piperazine] | 11.5 | 92 |  |  | 
27 | COc1cccc(Cc2csc(N3CCN(S(=O)(=O)c4cccc(OC)c4)CC3)n2)c1 [Compound 17, 1-(4-(3-methoxybenzyl)thiazol-2-yl)-4-(3-methoxyphenylsulfonyl)piperazine] | 4360 | 130 |  |  | 
28 | COc1cccc(Cc2csc(N3CCN(S(=O)(=O)c4cccnc4)CC3)n2)c1 [Compound 20, 1-(4-(3-methoxybenzyl)thiazol-2-yl)-4-(pyridin-3-ylsulfonyl)piperazine] | 1720 | 76 |  |  | 
29 | COC(=O)COc1ccc(S(=O)(=O)N2CCN(c3nc(-c4ccc(C)cc4)cs3)CC2)cc1 [Compound 33, Methyl 2-(4-(4-(4-p-tolylthiazol-2-yl)piperazin-1-ylsulfonyl)phenoxy)acetate] | 51.6 | 21 |  |  | 
